Laboratory results reported in patent US12036222B2, “Methods of treating cancers overexpressing CARM1 with EZH2 inhibitors and a PARP inhibitor” (The Wistar Institut of Anatomy and Biology, priority 2018, dated 2024).

Columns and labels:
EZH2 = biological target: T1, EZH2 (Homo sapiens, UniProt Q15910); experiment: Immunoblot of A1847 cells treated with GSK126 (H3K27Me3 as readout of EZH2 activity); assay type: cell-based; design: inhibition of the enzymatic activity of EZH2 as indicated by the decrease in H3K27Me3 levels: dose or concentration left out as unconfirmed; settings: 72 hours
T1 construct: endogenous in cells; host or cells: A1847 cells (CARM1-high epithelial ovarian cancer line)
T1 sequence (Q15910 whole entry): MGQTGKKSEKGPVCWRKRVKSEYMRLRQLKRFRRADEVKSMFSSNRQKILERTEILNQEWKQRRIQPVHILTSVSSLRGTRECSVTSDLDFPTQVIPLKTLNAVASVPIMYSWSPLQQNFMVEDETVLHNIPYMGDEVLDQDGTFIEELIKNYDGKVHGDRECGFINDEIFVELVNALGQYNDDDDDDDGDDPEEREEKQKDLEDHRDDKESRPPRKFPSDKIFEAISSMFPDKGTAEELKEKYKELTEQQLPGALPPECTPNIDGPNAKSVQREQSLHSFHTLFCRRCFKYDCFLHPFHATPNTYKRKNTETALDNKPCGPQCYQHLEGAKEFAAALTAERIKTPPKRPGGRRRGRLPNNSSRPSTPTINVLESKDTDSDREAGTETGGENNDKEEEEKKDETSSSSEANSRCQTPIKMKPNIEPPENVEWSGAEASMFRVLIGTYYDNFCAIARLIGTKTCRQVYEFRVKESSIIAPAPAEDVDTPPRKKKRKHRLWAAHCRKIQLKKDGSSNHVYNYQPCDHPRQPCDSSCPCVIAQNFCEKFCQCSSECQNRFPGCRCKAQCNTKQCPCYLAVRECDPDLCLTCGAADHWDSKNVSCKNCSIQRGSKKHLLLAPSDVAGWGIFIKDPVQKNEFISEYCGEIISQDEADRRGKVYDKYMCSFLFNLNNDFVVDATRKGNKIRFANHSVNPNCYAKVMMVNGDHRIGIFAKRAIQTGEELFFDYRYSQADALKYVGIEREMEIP
T1 sequence (Q15022 whole entry partner): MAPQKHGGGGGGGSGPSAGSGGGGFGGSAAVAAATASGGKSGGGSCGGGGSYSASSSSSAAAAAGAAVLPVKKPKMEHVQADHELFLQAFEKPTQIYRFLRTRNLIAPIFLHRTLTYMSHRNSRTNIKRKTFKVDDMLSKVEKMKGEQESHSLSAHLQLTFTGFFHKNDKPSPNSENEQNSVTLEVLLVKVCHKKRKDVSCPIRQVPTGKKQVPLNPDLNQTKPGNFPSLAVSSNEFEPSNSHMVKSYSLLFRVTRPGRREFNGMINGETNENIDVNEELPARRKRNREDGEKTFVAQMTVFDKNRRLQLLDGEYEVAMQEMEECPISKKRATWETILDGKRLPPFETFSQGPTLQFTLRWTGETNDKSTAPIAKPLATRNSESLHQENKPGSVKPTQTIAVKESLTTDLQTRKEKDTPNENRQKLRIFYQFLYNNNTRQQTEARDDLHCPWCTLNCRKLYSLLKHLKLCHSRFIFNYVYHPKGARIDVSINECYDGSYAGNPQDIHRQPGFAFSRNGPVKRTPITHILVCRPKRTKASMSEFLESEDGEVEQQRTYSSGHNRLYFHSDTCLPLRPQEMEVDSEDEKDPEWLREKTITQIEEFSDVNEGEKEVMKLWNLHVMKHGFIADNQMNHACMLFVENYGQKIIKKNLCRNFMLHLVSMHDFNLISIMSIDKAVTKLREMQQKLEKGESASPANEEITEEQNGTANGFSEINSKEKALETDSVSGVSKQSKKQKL
T1 sequence (O75530 whole entry partner): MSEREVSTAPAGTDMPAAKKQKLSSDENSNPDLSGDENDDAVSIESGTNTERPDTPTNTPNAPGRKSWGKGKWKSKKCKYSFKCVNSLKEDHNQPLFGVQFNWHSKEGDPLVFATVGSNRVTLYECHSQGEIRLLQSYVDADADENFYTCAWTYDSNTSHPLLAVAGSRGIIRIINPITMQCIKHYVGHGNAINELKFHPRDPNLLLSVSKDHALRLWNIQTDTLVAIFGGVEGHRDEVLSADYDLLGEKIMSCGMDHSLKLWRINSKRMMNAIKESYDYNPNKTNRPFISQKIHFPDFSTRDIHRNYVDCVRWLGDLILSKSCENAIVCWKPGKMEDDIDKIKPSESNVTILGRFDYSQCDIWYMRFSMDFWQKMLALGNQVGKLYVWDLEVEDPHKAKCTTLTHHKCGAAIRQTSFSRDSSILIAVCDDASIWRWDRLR
Description: FIG. 32 illustrates that the EZH2 inhibitor GSK126 decreases H3K27Me3 levels in a dose-dependent manner. A1847 cells were treated with the indicated concentrations of GSK126 for 72 hours and examined for expression of the indicated proteins by immunoblot. Expression of histone H3 and 3-actin was used as a loading control.

[1] = tested on: tumors formed by CARM1 knockout cells; experiment: Immunohistochemistry and qRT-PCR of dissected CARM1 knockout tumors; assay type: in vivo, mice
Description: FIGS. 82 to 84 illustrate immunohistochemical analysis for serial sections of tumors dissected from mice injected with CARM1 knockout A1847 cells. Serial sections of tumors dissected from the indicated treatment groups described in FIGS. 73 to 75 were subjected to immunohistochemical staining for H3K27Me3, EZH2, cleaved caspase 3, and Ki67 (FIG. 82). Scale bar=50 μm. Histological score (H-score) of the indicated proteins was calculated for 3 separate fields from 5 tumors from 5 individual mice from each of the indicated groups (FIG. 83). Expression of the indicated EZH2/BAF155 target genes was determined by qRT-PCR in the tumors dissected from the indicated treatment groups (FIG. 84).
The observed tumor growth suppression in vivo was correlated with the molecular pathways underlying the CARM1-dependent effects of EZH2 inhibition. To do so, immunohistochemical (IHC) analysis was performed for markers of cell proliferation (Ki67), apoptosis (cleaved caspase 3), H3K27Me3 and EZH2. […] Finally, the observed decrease in cell proliferation and increase in apoptosis correlated with the upregulation of the identified CARM1-regulated EZH2/BAF155 target genes such as DAB2, DLC1 and NOXA by the EZH2 inhibitor GSK126 in vivo (FIG. 81).

DAB2, DLC1, and NOXA = experiment: qRT-PCR of EZH2/BAF155 target genes in cells; assay type: cell-based, human; settings: 10 μM GSK126
Description: FIG. 55 illustrates the relative expression of DAB2, DLC1, and NOXA in parental control and CARM1 knockout A1847 cells that were treated with 10 μM GSK126 or vehicle controls. mRNA expression of the indicated genes was determined by qRT-PCR. *p<0.002 compared with parental controls.
FIG. 56 illustrates the relative expression of DAB2, DLC1, and NOXA in CARM1 high OVCAR10 cells treated with 10 μM GSK126 or vehicle control for 7 days. Expression of the indicated BAF155/EZH2 target genes was determined by qRT-PCR. *p<0.001. Mean of three independent experiments with SEM.
RNA was isolated by RNeasy Mini Kit (Qiagen). mRNA relative expression for DAB2, DLC1, and PMAIP was determined using SYBR green 1-step iScript (Bio-Rad) with a Life Technologies QuantStudio 3. The primers were: 5′-[…]-3′ (DAB2 forward (SEQ ID NO: 2)) and 5′-[…]-3′ (DAB2 reverse (SEQ ID NO: 3)); 5′-[…]-3′ (DLC1 forward (SEQ ID NO: 4)) and 5′-[…]-3′ (DLC1 reverse (SEQ ID NO: 5)); 5′-[…]-3′ (NOXA forward (SEQ ID NO: 6)) and 5′-[…]-3′ (NOXA reverse (SEQ ID NO: 7)); and 5′-[…]-3′ (TIMP3 forward (SEQ ID NO: 8)) and 5′-[…]-3′ (TIMP3 reverse (SEQ ID NO: 9)).

SMILES: CC[C@H](C)n1cc(C)c2c(C(=O)NCc3c(C)cc(C)[nH]c3=O)cc(-c3ccc(N4CCNCC4)nc3)cc21 [GSK126, (S)-1-(sec-butyl)-N-((4,6-dimethyl-2-oxo-1,2-dihydropyridin-3-yl)methyl)-3-methyl-6-(6-(piperazin-1-yl)pyridin-3-yl)-1H-indole-4-carboxamide]
- EZH2 protein levels (EZH2): did not affect EZH2 protein levels
- expression of CARM1 (EZH2): did not affect the expression of CARM1
- inhibition of the enzymatic activity of EZH2 as indicated by the decrease in H3K27Me3 levels (EZH2): > 95%
- H3K27Me3 levels (EZH2; indicated concentrations): dose-dependent decrease in H3K27Me3 levels
- H3K27Me3 ([1]; IHC): reduction of H3K27Me3
- expression of Ki67 ([1]; IHC): did not affect the expression
- expression of cleaved caspase 3 ([1]; IHC): did not affect the expression
- expression of CARM1 regulated EZH2/BAF155 target genes ([1]; qRT-PCR): did not increase the expression
- expression of identified EZH2/BAF155 target genes (DAB2, DLC1, NOXA) (DAB2, DLC1, and NOXA; A1847, OVCAR10 cells): upregulated
- additivity of GSK126 treatment and CARM1 knockout on target gene expression (DAB2, DLC1, and NOXA; CARM1 knockout A1847 cells): did not appear to have additive effects
